Assay results as given in patent publication US6737383B1, “Herbicidal oxadiazolidines” (priority 1999, dated 2004).

Key:
cocklebur = assay: Test B pre/postemergence cocklebur; assay type: in vivo, Xanthium strumarium
Procedure, shortened: (§1)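 Response is a visual 0-to-10 score relative to untreated plants, where 0 means no effect and 10 means complete control, taken twelve to sixteen days after application. Treatments went onto soil at planting and onto foliage of 1- to 4-leaf plants, using a surfactant-containing non-phytotoxic solvent.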

sugar beet = assay: Test B pre/postemergence sugar beet; assay type: in vivo, Beta vulgaris
Procedure, shortened: as §1

bedstraw = assay: Test B pre/postemergence bedstraw; assay type: in vivo, Galium aparine; settings: Preemergence
Procedure, shortened: as §1

soybean = assay: Test B pre/postemergence soybean; assay type: in vivo, Glycine max; settings: for Plant response rating, Soybean: Postemergence
Procedure, shortened: as §1

pigweed = assay: Test B pre/postemergence pigweed; assay type: in vivo, Amaranthus retroflexus; settings: for Plant response rating, Redroot pigweed: Postemergence
Procedure, shortened: as §1

rape = assay: Test B pre/postemergence rape; assay type: in vivo, Brassica napus
Procedure, shortened: as §1

velvetleaf = assay: Test B pre/postemergence velvetleaf; assay type: in vivo, Abutilon theophrasti; settings: for Plant response rating, Velvetleaf: Postemergence
Procedure, shortened: as §1

wild oat = assay: Test B pre/postemergence wild oat; assay type: in vivo, Avena fatua; settings: for Plant response rating, Wild oats: Postemergence
Procedure, shortened: as §1

purple nutsedge = assay: Test B pre/postemergence purple nutsedge; assay type: in vivo, Cyperus rotundus; settings: for Nutsedge plant response rating: Rate 125 g/ha, scale 0 to 10, 0 is no effect, 10 is complete control
Procedure, shortened: as §1

corn = assay: Test B pre/postemergence corn; assay type: in vivo, Zea mays
Procedure, shortened: as §1

morningglory = assay: Test B pre/postemergence morningglory; assay type: in vivo, Ipomoea hederacea
Procedure, shortened: as §1

crabgrass = assay: Test B pre/postemergence crabgrass; assay type: in vivo, Digitaria sanguinalis
Procedure, shortened: as §1

giant foxtail = assay: Test B pre/postemergence giant foxtail; assay type: in vivo, Setaria faberii
Procedure, shortened: as §1

blackgrass = assay: Test B pre/postemergence blackgrass; assay type: in vivo, Alopecurus myosuroides
Procedure, shortened: as §1

surinam grass = assay: Test B pre/postemergence surinam grass; assay type: in vivo, Brachiaria decumbens; settings: for Plant response rating, B. signalgrass: scale of 0 to 10 where 0 is no effect and 10 is complete control
Procedure, shortened: as §1

wheat = assay: Test B pre/postemergence wheat; assay type: in vivo, Triticum aestivum; settings: for Plant response rating, Wheat: Postemergence
Procedure, shortened: as §1

[1] = Postemergence, Rate 62 g/ha, scale of 0 to 10, 0 is no effect, 10 is complete control
[2] = Postemergence, Rate 125 g/ha, scale 0 to 10, 0 is no effect, 10 is complete control
[3] = Postemergence, Rate 500 g/ha, scale of 0 to 10 where 0 is no effect and 10 is complete control
[4] = Preemergence, Rate 62 g/ha, scale 0 to 10 (0 no effect, 10 complete control)
[5] = Preemergence, Rate 125 g/ha, scale 0 to 10, 0 is no effect, 10 is complete control
[6] = Preemergence, Rate 500 g/ha, scale of 0 to 10 where 0 is no effect and 10 is complete control
[7] = Rate 250 g/ha, Postemergence, scale of 0 to 10 where 0 is no effect and 10 is complete control
[8] = Rate 500 g/ha, scale of 0 to 10 where 0 is no effect and 10 is complete control
[9] = Rate 250 g/ha, scale of 0 to 10 where 0 is no effect and 10 is complete control

## C=CCCCn1c(=O)on(C(=O)N(c2ccccc2)C(C)C)c1=O [Compound 575]
cocklebur; [1]
  Cocklebur plant response rating: 0
cocklebur; [2]
  Cocklebur plant response rating: 0
cocklebur; [3]
  Plant response rating, Cocklebur: 2
cocklebur; [4]
  Cocklebur plant response rating: 0
cocklebur; [5]
  Cocklebur plant response rating: 0
cocklebur; Preemergence, Rate 250 g/ha
  Cocklebur plant response rating (0 to 10 scale): 0
cocklebur; [6]
  Cocklebur plant response rating: 0
cocklebur; [7]
  Plant response rating, Cocklebur: 0
Sugar beet; [3]
  Plant response rating, Sugarbeets: 2
Sugar beet; [4]
  Sugarbeets plant response rating: 0
Sugar beet; [5]
  Sugarbeets plant response rating: 0
Sugar beet; Preemergence, Rate 250 g/ha
  Sugarbeets plant response rating (0 to 10 scale): 0
Sugar beet; [6]
  Sugarbeets plant response rating: 2
bedstraw; Rate 62 g/ha, scale 0 to 10 (0 no effect, 10 complete control)
  Bedstraw plant response rating: 0
bedstraw; Rate 125 g/ha, scale 0 to 10, 0 is no effect, 10 is complete control
  Bedstraw plant response rating: 0
bedstraw; Rate 250 g/ha
  Bedstraw plant response rating (0 to 10 scale): 0
bedstraw; [8]
  Bedstraw plant response rating: 0
soybean; [8]
  Plant response rating, Soybean: 6
soybean; [4]
  Soybean plant response rating: 0
soybean; [5]
  Soybean plant response rating: 0
soybean; Preemergence, Rate 250 g/ha
  Soybean plant response rating (0 to 10 scale): 0
soybean; [6]
  Soybean plant response rating: 0
soybean; [9]
  Plant response rating, Soybean: 5
pigweed; [8]
  Plant response rating, Redroot pigweed: 7
pigweed; [4]
  Redroot pigweed plant response rating: 9
pigweed; [5]
  Redroot pigweed plant response rating: 9
pigweed; Preemergence, Rate 250 g/ha
  Redroot pigweed plant response rating (0 to 10 scale): 10
pigweed; [6]
  Redroot pigweed plant response rating: 10
pigweed; [9]
  Plant response rating, Redroot pigweed: 4
rape; [1]
  Rape plant response rating: 0
rape; [2]
  Rape plant response rating: 0
rape; [3]
  Plant response rating, Rape: 3
rape; [4]
  Rape plant response rating: 0
rape; [5]
  Rape plant response rating: 2
rape; Preemergence, Rate 250 g/ha
  Rape plant response rating (0 to 10 scale): 2
rape; [6]
  Rape plant response rating: 2
rape; [7]
  Plant response rating, Rape: 3
velvetleaf; [8]
  Plant response rating, Velvetleaf: 3
velvetleaf; [4]
  Velvetleaf plant response rating: 0
velvetleaf; [5]
  Velvetleaf plant response rating: 0
velvetleaf; Preemergence, Rate 250 g/ha
  Velvetleaf plant response rating (0 to 10 scale): 0
velvetleaf; [6]
  Velvetleaf plant response rating: 2
velvetleaf; [9]
  Plant response rating, Velvetleaf: 2
Wild oat; [8]
  Plant response rating, Wild oats: 0
Wild oat; [4]
  Wild oats plant response rating: 0
Wild oat; [5]
  Wild oats plant response rating: 0
Wild oat; Preemergence, Rate 250 g/ha
  Wild oats plant response rating (0 to 10 scale): 2
Wild oat; [6]
  Wild oats plant response rating: 2
Wild oat; [9]
  Plant response rating, Wild oats: 0
Purple nutsedge; Postemergence
  Nutsedge plant response rating: 0
Purple nutsedge; Preemergence
  Nutsedge plant response rating: 0
Purple nutsedge; Preemergence, Rate 250 g/ha
  Nutsedge plant response rating (0 to 10 scale): 0
Purple nutsedge; [7]
  Plant response rating, Nutsedge: 0
corn; [1]
  Corn plant response rating: 0
corn; [2]
  Corn plant response rating: 0
corn; [3]
  Plant response rating, Corn: 0
corn; [4]
  Corn plant response rating: 0
corn; [5]
  Corn plant response rating: 0
corn; Preemergence, Rate 250 g/ha
  Corn plant response rating (0 to 10 scale): 0
corn; [6]
  Corn plant response rating: 3
corn; [7]
  Plant response rating, Corn: 0
morningglory; [1]
  Morningglory plant response rating: 4
morningglory; [2]
  Morningglory plant response rating: 6
morningglory; [3]
  Plant response rating, Morningglory: 10
morningglory; [4]
  Morningglory plant response rating: 0
morningglory; [5]
  Morningglory plant response rating: 0
morningglory; Preemergence, Rate 250 g/ha
  Morningglory plant response rating (0 to 10 scale): 0
morningglory; [6]
  Morningglory plant response rating: 2
morningglory; [7]
  Plant response rating, Morningglory: 9
crabgrass; [1]
  Crabgrass plant response rating: 0
crabgrass; [2]
  Crabgrass plant response rating: 2
crabgrass; [3]
  Plant response rating, Crabgrass: 9
crabgrass; [4]
  Crabgrass plant response rating: 8
crabgrass; [5]
  Crabgrass plant response rating: 9
crabgrass; Preemergence, Rate 250 g/ha
  Crabgrass plant response rating (0 to 10 scale): 9
crabgrass; [6]
  Crabgrass plant response rating: 9
crabgrass; [7]
  Plant response rating, Crabgrass: 9
Giant foxtail; [2]
  Giant foxtail plant response rating: 2
Giant foxtail; [4]
  Giant foxtail plant response rating: 8
Giant foxtail; [5]
  Giant foxtail plant response rating: 10
Giant foxtail; Preemergence, Rate 250 g/ha
  Giant foxtail plant response rating (0 to 10 scale): 10
Giant foxtail; [6]
  Giant foxtail plant response rating: 10
Giant foxtail; [7]
  Plant response rating, Giant foxtail: 8
blackgrass; [1]
  Blackgrass plant response rating: 0
blackgrass; [2]
  Blackgrass plant response rating: 0
blackgrass; [3]
  Plant response rating, Blackgrass: 3
blackgrass; [4]
  Blackgrass plant response rating: 2
blackgrass; [5]
  Blackgrass plant response rating: 6
blackgrass; Preemergence, Rate 250 g/ha
  Blackgrass plant response rating (0 to 10 scale): 7
blackgrass; [6]
  Blackgrass plant response rating: 2
blackgrass; [7]
  Plant response rating, Blackgrass: 0
Surinam grass; [1]
  B. signalgrass plant response rating: 0
Surinam grass; [2]
  B. signalgrass plant response rating: 0
Surinam grass; Postemergence, Rate 500 g/ha
  Plant response rating, B. signalgrass: 3
Surinam grass; [4]
  B. signalgrass plant response rating: 6
Surinam grass; [5]
  B. signalgrass plant response rating: 9
Surinam grass; Preemergence, Rate 250 g/ha
  B. signalgrass plant response rating (0 to 10 scale, 0 is no effect, 10 is complete control): 10
Surinam grass; Rate 250 g/ha, Postemergence
  Plant response rating, B. signalgrass: 0
wheat; [8]
  Plant response rating, Wheat: 2
wheat; [4]
  Wheat plant response rating: 0
wheat; [5]
  Wheat plant response rating: 0
wheat; Preemergence, Rate 250 g/ha
  Wheat plant response rating (0 to 10 scale): 0
wheat; [6]
  Wheat plant response rating: 0
wheat; [9]
  Plant response rating, Wheat: 0
